Experimental data published in patent US7683211B2, “Jasmonate derivative compounds pharmaceutical compounds and methods of use thereof” (Ramot at Tel-Aviv University Ltd., priority 2003, dated 2010).
Read-outs that look alike come from different tables or passages of the source.

How the values were obtained:
lymphomas in mice = settings: from U.S. Pat. No. 6,469,061; cited from earlier work
[1] = system: Molt-4 lymphoblastic leukemia cells; assay: CellTiter 96 MTS cytotoxicity assay, Molt-4 leukemia cells; assay type: cell-based, human; settings: for IC50: Homo sapiens, 24 h, Molt-4 at 2.5×10^4/ml
Protocol: (§1) Measurement of reduction in the number of living cells was determined by, the CellTiter 96 Aqueous Non-Radioactive Cell Proliferation Assay (Promega, Madison Wis.). Upon completion of a given experiment, MTS (a tetrazolium compound) at 333 μg/ml+phenazine methosulfate (at 25 μM) was added to each well of the 96-well plate for 1 hour at 37° C. This allowed for development of a color reaction in which dehydrogenases reduce the MTS in metabolically active cells. Since the cells were not washed before the addition of MTS, there were no potentially loosely adherent or non-adherent cells that could have been problematic. Soluble MTS formazan product was measured at a wavelength of 490 nm using a CERES 900 HDI ELISA reader (Bio-Tek Instruments, Inc, Highland Park, Vt.), Optical density is directly proportional to the number of living cells in culture. Cytotoxicity (%) was calculated in the following way: [(OD of control cells−OD of drug-treated cells)/OD of control cells]×100.
(§2) Molt-4 lymphoblastic leukemia cells (at 1.5×10^4/well), 3LL lung carcinoma cells (at 4×10^3/well), B16 melanoma cells (at 4×10^3/well), or HCT116 colon carcinoma cells (at 4×10^3/well) were seeded in 96-well plates and methyl jasmonate (MJ) or MJDB at 0.5 mM were added for 1 day. Optical density representing viable cells was determined by the CellTiter 96 Aqueous Non-Radioactive Cell Proliferation Assay (described above). Cytotoxicity was calculated as the % of control untreated cultures, mean±SD. n=3.
(§3) The optical density that represented viable cells was determined by the CellTiter 96 Aqueous Non-Radioactive Cell Proliferation Assay (Promega, Madison, Wis.), as described above. Cytotoxicity was calculated as % of control untreated cultures, mean±SE. n=3.
Biological assays were performed with a 1:1 mixture of the aforementioned tetra bromo isomers. More specifically, Molt-4 leukemic cells (at 2.5×10^4/ml) were incubated for one day in 96-well plates in the presence of different concentrations of either MJ or MJTB. The optical density that represented viable cells was determined by the CellTiter 96 Aqueous Non-Radioactive Cell Proliferation Assay (Promega, Madison, Wis.) as described above. Cytotoxicity is calculated as % of control untreated cultures, mean±SE. n=3.
Molt-4 (leukemia) cells (at 2.5×10^4/ml), and normal peripheral blood lymphocytes (PBL, at 2×10^5/ml) were incubated in 96-well plates for one day in the presence of different concentrations of MJTB. PBL were pre-incubated with 0.8 μg/ml phytohaemagglutinin +5 ng/ml TPA for 48 hours, to induce entrance into the cell cycle. These cells proliferate and therefore are similar in that respect to cancer cells, making the comparison more valid. The optical density that represented viable cells was determined by the CellTiter 96 Aqueous Non-Radioactive Cell Proliferation Assay (Promega, Madison, Wis.), as described above.
Molt4 leukemic cells (at 1.5×10^4/ml) were incubated for 1 day in the presence of different concentrations of halogenated derivatives of MJ. Specifically, these derivatives were MJS72f5 (one of R6 and R7 is iodo and the other is methoxy), MJS99 (R6 and R7 are each fluoro) and NJ-63 (one of R6 and R7 is bromo and the other is hydroxyl). The optical density that represented viable cells was determined by the CellTiter 96 Aqueous Non-Radioactive Cell Proliferation Assay (Promega, Madison, Wis.), described above. […] Another derivative.

3LL lung carcinoma cells = assay: CellTiter 96 MTS cytotoxicity assay, 3LL lung carcinoma cells; assay type: cell-based, mouse; settings: 0.5 mM, 1 day, FIG. 2, P<0.05
Protocol: as §1
as §2, with “Optical density representing viable cells was determined by the CellTiter 96 Aqueous Non-Radioactive Cell Proliferation Assay (described above).” left out

[2] = system: HCT116 colon carcinoma cells; assay: CellTiter 96 MTS cytotoxicity assay, HCT116 colon carcinoma cells; assay type: cell-based, human; settings: 0.5 mM, 1 day, FIG. 2, P<0.05
Protocol: as §1
as §2, with “Optical density representing viable cells was determined by the CellTiter 96 Aqueous Non-Radioactive Cell Proliferation Assay (described above).” left out

[3] = system: peripheral blood lymphocytes from chronic lymphocytic leukemia (CLL) patients; assay: CellTiter 96 MTS cytotoxicity assay, CLL patient lymphocytes; assay type: cell-based, human; settings: 1 day, several concentrations, FIG. 1; P<0.05 versus healthy donors
Protocol: as §1
(§4) In order to test the toxicity of MJDB towards human leukemia cells, peripheral blood lymphocytes from chronic lymphocytic leukemia (CLL) patients were harvested. […] The optical density that represented viable cells was determined by the CellTiter 96 Aqueous Non-Radioactive Cell Proliferation Assay (Promega, Madison, Wis.); an assay in which viable cells produce a colored product, as described above. […]

[4] = system: ATP levels in Molt-4 leukemia cells; assay: ATP determination assay (CellTiter-Glo) in Molt-4 cells; assay type: cell-based, human; settings: MJDB at 1 mM (MJ at 3 mM) for 10, 30 or 60 minutes at 37° C., FIG. 4
Protocol: An ATP determination assay was used to assess the effect of MJDB on ATP levels in cancer cells. More specifically, Molt-4 cells (at 1×10^4/well) were seeded in 96-well opaque-walled plates and MJ at 3 mM or MJDB at 1 mM were added for 10, 30 or 60 minutes at 37° C. Untreated cells incubated in culture medium were used as control. ATT levels were determined by the CellTiter-Glo™ Luminescent Cell Viability Assay; an assay in which cells produce a lumineascence signal that is equivalent to the ATP concentration in the cell. ATP depletion is calculated as % of control untreated cultures, mean±SD. n=3.

B16 melanoma cells = assay: CellTiter 96 MTS cytotoxicity assay, B16 melanoma cells; assay type: cell-based
Protocol: as §1
as §2, with “Optical density representing viable cells was determined by the CellTiter 96 Aqueous Non-Radioactive Cell Proliferation Assay (described above).” left out, “n=3. […]” for “n=3.”

[5] = system: 29M4.1 B lymphoma cells expressing mutant p53; assay: CellTiter 96 MTS cytotoxicity assay, 29M4.1 B lymphoma clone with mutant p53; assay type: cell-based; settings: 1 day, several concentrations, FIG. 3
Protocol: as §1
(§5) A system of two B lymphoma clones originating from the same cell line (29M4.1) was used. These clones differed solely in the expression of wild type versus mutant p53. […] The optical density that represented viable cells was determined by the CellTiter 96 Aqueous Non-Radioactive Cell Proliferation Assay (Promega, Madison, Wis.).

[6] = system: peripheral blood lymphocytes from healthy donors; assay: CellTiter 96 MTS cytotoxicity assay, lymphocytes from healthy donors; assay type: cell-based, human; settings: 1 day, several concentrations, FIG. 1
Protocol: as §1, §4

[7] = system: 29M4.1 B lymphoma cells expressing wild type p53; assay: CellTiter 96 MTS cytotoxicity assay, 29M4.1 B lymphoma clone with wild type p53; assay type: cell-based; settings: 1 day, several concentrations, FIG. 3
Protocol: as §1, §5

[8] = system: D122 (lung carcinoma) cells; assay: CellTiter 96 MTS cytotoxicity assay, D122 lung carcinoma cells; assay type: cell-based, human; settings: Mus musculus, 24 h; D122 at 5×10^3/ml, one day incubation, MTS readout
Protocol: as §1, §3

[9] = CellTiter 96 MTS cytotoxicity assay, stimulated normal PBL; assay type: cell-based; settings: PBL at 2×10^5/ml, pre-incubated with phytohaemagglutinin + TPA for 48 hours, one day with compound
Protocol: as §1
(§6) Molt-4 (leukemia) cells (at 2.5×10^4/ml), and normal peripheral blood lymphocytes (PBL, at 2×10^5/ml) were incubated in 96-well plates for one day in the presence of different concentrations of MJTB. […] The optical density that represented viable cells was determined by the CellTiter 96 Aqueous Non-Radioactive Cell Proliferation Assay (Promega, Madison, Wis.), as described above.

[10] = system: normal peripheral blood lymphocytes (PBL); assay: as above; assay type: cell-based; settings: PBL versus Molt-4
Protocol: as §1, §6

[11] = system: B16MDR (melanoma exhibiting multidrug resistance) cells; assay: CellTiter 96 MTS cytotoxicity assay, B16MDR melanoma cells; assay type: cell-based, human; settings: Mus musculus, 24 h; B16MDR at 2×10^3/ml, one day incubation, MTS readout; read-out: IC50 (cytotoxicity), B16 MDR
Protocol: as §1, §3

[12] = one day, MJTB as 1:1 mixture of tetra bromo isomers (Example 6), read-out: IC50 (concentration exhibiting 50% cytotoxicity), Molt-4, MJTB versus MJ

Structure (SMILES)	prevention of development of lymphomas in mice (lymphomas in mice)	IC50 [1, 12] [µM]	cytotoxic effect compared to methyl jasmonate, 3LL (3LL lung carcinoma cells)	cytotoxic effect compared to methyl jasmonate, HCT116 [2]	cytotoxicity towards lymphocytes from CLL patients [3]	ATP depletion [4]	cytotoxic effect compared to methyl jasmonate, B16 (B16 melanoma cells; 0.5 mM, 1 day, FIG. 2, P<0.05)	cytotoxicity towards B lymphoma cells expressing mutant p53 [5]	cytotoxicity towards lymphocytes from healthy donors [6]	cytotoxic effect compared to methyl jasmonate, Molt-4 ([1]; 0.5 mM, 1 day, FIG. 2, P<0.05)	cytotoxicity towards B lymphoma cells expressing wild type p53 [7]	IC50 [8] [µM]	IC50 at 1 day [9] [µM]	IC50 for normal peripheral blood lymphocytes relative to leukemic cells [10]	IC50 (B16 melanoma cells; 24 h, B16 at 2×10^3/ml, one day incubation, MTS readout) [µM]	IC50 ([1]; one day incubation, MTS readout (Example 5), read-out: IC50 (cytotoxicity), Molt-4) [µM]	IC50 of MJTB smaller than that of MJ (fold) ([1]; Molt-4 cells, one day)	IC50 [11] [µM]
CC/C=C\CC1C(=O)CCC1CC(=O)OC (stereo not shown) [MJ, methyl jasmonate, reference compound]	effective in preventing development of lymphomas in mice	500	–	–	–	–	–	–	–	–	–	–	–	–	–	–	–	–
CCC(Br)C(Br)CC1C(=O)CCC1CC(=O)OC (stereo not shown) [MJDB, methyl jasmonate di-bromide]	–	–	highly superior in its cytotoxic effect	highly superior in its cytotoxic effect	highly and selectively cytotoxic	rapid and strong ATP depletion	highly superior in its cytotoxic effect	equally cytotoxic	cytotoxicity is minimal	highly superior in its cytotoxic effect	equally cytotoxic	–	–	–	–	–	–	–
CCC(Br)C(Br)C[C@@]1(Br)C(=O)[C@@H](Br)CC1CC(=O)OC (stereo partly shown) [MJTB, methyl jasmonate tetra-bromide]	–	8	–	–	–	–	–	–	–	–	–	50	250	larger than that for leukemic cells by more than an order of magnitude	80	8	about 60 times	80
